Experimental data: patent US4705777A, “Cationic oligopeptides having microbicidal activity” (priority 1985, dated 1987)

Assays:
[1] = tested on: Streptococcus pneumoniae Type III; test: Antibacterial activity of rabbit granulocyte peptides (Table III), S. pneumoniae; assay type: cell-based; conditions: 50 μg/ml, 20 min, 37° C., 10 mM sodium phosphate buffer pH 7.4
Description: (§1) The procedure parallels that reported in Lehrer et al., Infection and Immunity (1983) 42:10-14. […] The subculture was grown at 37° C. for 4 h with shaking to provide mid-logarithmic phase organisms that were washed twice with buffer by centrifugation (2000×g, 10 min), and then quantitated spectrophotometrically at 620 nm, with reference to previously established CFU/Optical Density relationships. Bacteria were suspended and experiments were performed in 10 mM sodium phosphate buffer, pH 7.4. In some experiments, buffers were supplemented with 0.14 M NaCl ("high" ionic strength). […] In some experiments, 10 mM phosphate buffer with a pH of 5.8 and conductivity of 1.36 mMHO was used. Peptide "stock solutions" were prepared at 500 μg/ml (microbiuret assay) in 0.01% acetic acid, and stored at -20° C. Typically, incubation mixtures contained 1×10^5 bacterial CFU and 5 μg of peptide in 100 μl of buffer. After incubation for 20 min at 37° C., 900 μl of the same buffer was added, and two additional serial tenfold dilutions were made with that buffer. Duplicate 100 μl aliquots from the three serial dilutions were spread over appropriate nutrient agar plates and incubated for 24-72 h to insure full colony development. Killing of microorganisms was expressed as the logarithm10 No /N, where No represented the initial colony count and N represented the colony count after incubation with peptide. There was no significant alteration in colony count when any of the test organisms were exposed to peptide-free buffer for 20 min.

[2] = tested on: Staphylococcus aureus J.F.; test: Antibacterial activity of rabbit granulocyte peptides (Table III), S. aureus J.F.; assay type: cell-based; conditions: 50 μg/ml, 20 min, 37° C., 10 mM sodium phosphate buffer pH 7.4
Description: as §1

[3] = tested on: Streptococcus agalactiae Type-I-A; test: Antibacterial activity of rabbit granulocyte peptides (Table III), S. agalactiae Type-I-A; assay type: cell-based; conditions: 50 μg/ml, 20 min; for Bactericidal activity log10 No /N, Streptococcus agalactiae Type 1A, pH 5.8: 10 mM phosphate buffer pH 5.8; for Bactericidal activity log10 No /N, Streptococcus agalactiae Type-I-A: 37° C., 10 mM sodium phosphate buffer pH 7.4; for Bactericidal activity log10 No /N, Streptococcus agalactiae Type 1A, "High" ionic strength: buffer pH 7.4 supplemented with 0.14 M NaCl
Description: as §1

[4] = tested on: Bordetella bronchiseptica UCLA-342; test: Antibacterial activity of rabbit granulocyte peptides (Table III), B. bronchiseptica; assay type: cell-based; conditions: 50 μg/ml, 20 min, 37° C., 10 mM sodium phosphate buffer pH 7.4
Description: as §1

[5] = tested on: Staphylococcus aureus 566; test: Antibacterial activity of rabbit granulocyte peptides (Table III), S. aureus 566; assay type: cell-based; conditions: 50 μg/ml, 20 min, 37° C., 10 mM sodium phosphate buffer pH 7.4
Description: as §1

[6] = tested on: Hemophilus influenzae Type 3A; test: Antibacterial activity of rabbit granulocyte peptides (Table III), H. influenzae; assay type: cell-based; conditions: 50 μg/ml, 20 min, 37° C., 10 mM sodium phosphate buffer pH 7.4
Description: as §1

[7] = tested on: Streptococcus agalactiae Type IIIU; test: Antibacterial activity of rabbit granulocyte peptides (Table III), S. agalactiae Type IIIU; assay type: cell-based; conditions: 50 μg/ml, 20 min, 37° C., 10 mM sodium phosphate buffer pH 7.4
Description: as §1

[8] = tested on: Escherichia coli ATCC 29648; test: Antibacterial activity of rabbit granulocyte peptides (Table III), E. coli; assay type: cell-based; conditions: 50 μg/ml, 20 min, 37° C., 10 mM sodium phosphate buffer pH 7.4
Description: as §1

[9] = tested on: Klebsiella pneumoniae ATCC 13883; test: Antibacterial activity of rabbit granulocyte peptides (Table III), K. pneumoniae; assay type: cell-based; conditions: 50 μg/ml, 20 min; for Bactericidal activity log10 No /N, Klebsiella pneumoniae ATCC 13883, pH 5.8: 10 mM phosphate buffer pH 5.8; for Bactericidal activity log10 No /N, Klebsiella pneumoniae ATCC 13883: 37° C., 10 mM sodium phosphate buffer pH 7.4; for Bactericidal activity log10 No /N, Klebsiella pneumoniae ATCC 13883, "High" ionic strength: buffer pH 7.4 supplemented with 0.14 M NaCl
Description: as §1

[10] = tested on: Pseudomonas aeruginosa PAO 579; test: Antibacterial activity of rabbit granulocyte peptides (Table III), P. aeruginosa; assay type: cell-based; conditions: 50 μg/ml, 20 min; for Bactericidal activity log10 No /N, Pseudomonas aeruginosa PAO 579, pH 5.8: 10 mM phosphate buffer pH 5.8; for Bactericidal activity log10 No /N, Pseudomonas aeruginosa PAO 579: 37° C., 10 mM sodium phosphate buffer pH 7.4; for Bactericidal activity log10 No /N, Pseudomonas aeruginosa PAO 579, "High" ionic strength: buffer pH 7.4 supplemented with 0.14 M NaCl
Description: as §1

[11] = tested on: Listeria monocytogenes 450; test: Antibacterial activity of rabbit granulocyte peptides (Table III), L. monocytogenes; assay type: cell-based; conditions: 50 μg/ml, 20 min; for Bactericidal activity log10 No /N, Listeria monocytogenes 450, pH 5.8: 10 mM phosphate buffer pH 5.8; for Bactericidal activity log10 No /N, Listeria monocytogenes 450: 37° C., 10 mM sodium phosphate buffer pH 7.4; for Bactericidal activity log10 No /N, Listeria monocytogenes 450, "High" ionic strength: buffer pH 7.4 supplemented with 0.14 M NaCl
Description: as §1

[12] = tested on: Staphylococcus aureus 502A; test: Antibacterial activity of rabbit granulocyte peptides (Table III), S. aureus 502A; assay type: cell-based; conditions: 50 μg/ml, 20 min, 37° C., 10 mM sodium phosphate buffer pH 7.4
Description: as §1

Serratia marcescens = test: Antibacterial activity of rabbit granulocyte peptides (Table III), S. marcescens; assay type: cell-based; conditions: 50 μg/ml, 20 min, 37° C., 10 mM sodium phosphate buffer pH 7.4
Description: as §1

[13] = tested on: Staphylococcus epidermidis UCLA-622; test: Antibacterial activity of rabbit granulocyte peptides (Table III), S. epidermidis; assay type: cell-based; conditions: 50 μg/ml, 20 min, 37° C., 10 mM sodium phosphate buffer pH 7.4
Description: as §1

S. aureus 502A = test: Antibacterial action, % killing (Table II), S. aureus 502A; assay type: cell-based, Staphylococcus aureus; conditions: 50 μg/ml peptide, 10^7 bacterial cells/ml, 20 min, 37°
Description: (§2) To test antibacterial action of the polypeptides, the following protocol was employed. Various species at 10^7 bacterial cells/ml are incubated for 20 min at 37° with 50 μg/ml of the candidate peptide. Colony counts (viable organisms) are made at the outset of the incubation--beforeaddition of the candidate peptide--and after 20 min of incubation with the candidate peptide.

H. influenzae = test: Antibacterial action, % killing (Table II), H. influenzae; assay type: cell-based, Haemophilus influenzae; conditions: 50 μg/ml peptide, 10^7 bacterial cells/ml, 20 min, 37°
Description: as §2

S. albus = test: Antibacterial action, % killing (Table II), S. albus; assay type: cell-based, Staphylococcus albus; conditions: 50 μg/ml peptide, 10^7 bacterial cells/ml, 20 min, 37°
Description: as §2

E. coli = test: Antibacterial action, % killing (Table II), E. coli; assay type: cell-based, Escherichia coli; conditions: 50 μg/ml peptide, 10^7 bacterial cells/ml, 20 min, 37°
Description: as §2

Ps. aeruginosa = test: Antibacterial action, % killing (Table II), Ps. aeruginosa; assay type: cell-based, Pseudomonas aeruginosa; conditions: 50 μg/ml peptide, 10^7 bacterial cells/ml, 20 min, 37°
Description: as §2

L. monocytogenes = test: Antibacterial action, % killing (Table II), L. monocytogenes; assay type: cell-based, Listeria monocytogenes; conditions: 50 μg/ml peptide, 10^7 bacterial cells/ml, 20 min, 37°
Description: as §2

HSV-1 = test: Virus yield reduction, HSV-1; assay type: cell-based, Herpes simplex, Type 1; conditions: 100 IU/ml, human GM 2504 fibroblast cell line
VSV = assay type: cell-based, Vesicular stomatitis virus; conditions: 10 IU/ml, human GM 2504 fibroblast cell line
S. marscescens = test: Antibacterial action, % killing (Table II), S. marscescens; assay type: cell-based, Serratia marscescens; conditions: 50 μg/ml peptide, 10^7 bacterial cells/ml, 20 min, 37°
Description: as §2

Substance	Bactericidal activity log10 No /N, Streptococcus pneumoniae Type III [1] [log10]	Bactericidal activity log10 No /N, Staphylococcus aureus J.F. [2] [log10]	Bactericidal activity log10 No /N, Streptococcus agalactiae Type 1A, pH 5.8 [3] [log10]	Bactericidal activity log10 No /N, Streptococcus agalactiae Type-I-A [3] [log10]	Bactericidal activity log10 No /N, Streptococcus agalactiae Type 1A, "High" ionic strength [3] [log10]	Bactericidal activity log10 No /N, Bordetella bronchiseptica UCLA-342 [4] [log10]	Bactericidal activity log10 No /N, Staphylococcus aureus 566 [5] [log10]	Bactericidal activity log10 No /N, Hemophilus influenzae Type 3A [6] [log10]	Bactericidal activity log10 No /N, Streptococcus agalactiae Type IIIU [7] [log10]	Bactericidal activity log10 No /N, Escherichia coli ATCC 29648 [8] [log10]	Bactericidal activity log10 No /N, Klebsiella pneumoniae ATCC 13883, pH 5.8 [9] [log10]	Bactericidal activity log10 No /N, Klebsiella pneumoniae ATCC 13883 [9] [log10]	Bactericidal activity log10 No /N, Klebsiella pneumoniae ATCC 13883, "High" ionic strength [9] [log10]	Bactericidal activity log10 No /N, Pseudomonas aeruginosa PAO 579, pH 5.8 [10] [log10]	Bactericidal activity log10 No /N, Pseudomonas aeruginosa PAO 579 [10] [log10]	Bactericidal activity log10 No /N, Pseudomonas aeruginosa PAO 579, "High" ionic strength [10] [log10]	Bactericidal activity log10 No /N, Listeria monocytogenes 450, pH 5.8 [11] [log10]	Bactericidal activity log10 No /N, Listeria monocytogenes 450 [11] [log10]	Bactericidal activity log10 No /N, Listeria monocytogenes 450, "High" ionic strength [11] [log10]	Bactericidal activity log10 No /N, Staphylococcus aureus 502A [12] [log10]	also measured
val ser cys thr cys arg arg phe ser cys gly phe gly glu arg ala ser gly ser cys thr val asn gly val arg his thr leu cys cys arg arg [NP-4]	4.3	0.1	0.0	0.1	0.0	0.1	0.2	1.3	0.2	0.1	0.3	0.2	0.0	0.0	0.2	0.0	0.0	0.1	0.0	0.1	Bactericidal activity log10 No /N, Serratia marcescens (Serratia marcescens): 1.3 log10; Bactericidal activity log10 No /N, Staphylococcus epidermidis UCLA-622 [13]: 0.2 log10
val val cys ala cys arg arg ala leu cys leu pro arg glu arg arg ala gly phe cys arg ile arg gly arg ile his pro leu cys cys arg arg [NP-1]	3.8	2.7	0.1	2.3	0.0	0.1	> 4.1	> 1.1	3.9	1.9	0.6	3.0	0.1	0.3	> 4.2	0.1	0.2	2.1	0.1	2.3	% Killing, S. aureus 502A (S. aureus 502A): D (<50% killing); % Killing, H. influenzae (H. influenzae): A (>99% killing); % Killing, S. albus (S. albus): B (90-99% killing); % Killing, E. coli (E. coli): B (90-99% killing); % Killing, Ps. aeruginosa (Ps. aeruginosa): A (>99% killing); Bactericidal activity log10 No /N, Serratia marcescens (Serratia marcescens): 1.0 log10; % Killing, L. monocytogenes (L. monocytogenes): A (>99% killing); Bactericidal activity log10 No /N, Staphylococcus epidermidis UCLA-622 [13]: > 4.1 log10
val phe cys thr cys arg gly phe leu cys gly ser gly glu arg ala ser gly ser cys thr ile asn gly val arg his thr leu cys cys arg [NP-5]	1.9	0.1	0.0	0.5	0.0	0.0	0.4	1.2	0.4	0.2	0.1	1.2	0.0	0.1	0.7	0.0	0.1	0.5	0.2	0.2	Bactericidal activity log10 No /N, Serratia marcescens (Serratia marcescens): 1.2 log10; Bactericidal activity log10 No /N, Staphylococcus epidermidis UCLA-622 [13]: 0.4 log10
IFN-α [reference compound]	–	–	–	–	–	–	–	–	–	–	–	–	–	–	–	–	–	–	–	–	decrease in HSV-1 yield (HSV-1): 0.6 log10; decrease in VSV yield (VSV): 6 log10
gly arg cys val cys arg lys gln 21eu cys ser tyr arg glu arg arg ile gly asp cys lys ile arg gly val arg phe pro phe cys cys pro arg [NP-3b]	> 3.5	0.8	0.2	0.9	0.0	0.1	1.7	0.7	1.2	1.4	0.2	3.4	0.0	0.0	4.2	0.0	0.0	4.3	0.0	0.3	% Killing, S. aureus 502A (S. aureus 502A): D (<50% killing); % Killing, S. albus (S. albus): D (<50% killing); % Killing, E. coli (E. coli): C (50-90% killing); % Killing, Ps. aeruginosa (Ps. aeruginosa): A (>99% killing); Bactericidal activity log10 No /N, Serratia marcescens (Serratia marcescens): 0.7 log10; % Killing, L. monocytogenes (L. monocytogenes): B (90-99% killing); % Killing, S. marscescens (S. marscescens): B (90-99% killing); Bactericidal activity log10 No /N, Staphylococcus epidermidis UCLA-622 [13]: 1.7 log10
